The values that follow come from patent publication US20100285145A1, “GPR 119 MODULATORS” (PFIZER INC, priority 2009, published 2010).

The term EC50 denotes the concentration at which the effect is half-maximal.

In assay [1] the target is T1, human GPR119 (Homo sapiens, UniProt Q8TDV5).
T1 sequence (Q8TDV5 1-335): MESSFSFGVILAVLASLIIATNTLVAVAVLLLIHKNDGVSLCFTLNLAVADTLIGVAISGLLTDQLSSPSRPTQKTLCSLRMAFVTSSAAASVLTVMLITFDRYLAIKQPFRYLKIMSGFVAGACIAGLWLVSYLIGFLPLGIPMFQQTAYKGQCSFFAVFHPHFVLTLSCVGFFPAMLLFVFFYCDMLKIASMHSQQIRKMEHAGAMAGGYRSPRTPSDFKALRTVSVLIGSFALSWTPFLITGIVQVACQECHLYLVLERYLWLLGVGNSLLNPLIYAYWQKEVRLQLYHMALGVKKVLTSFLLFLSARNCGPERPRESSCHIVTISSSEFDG
Briefly: cAMP HTRF functional assay (hGPR119 HEK-CRE beta-lactamase cells). In kind it is cell-based. The arrangement: host or cells: HEK293-CRE beta-lactamase. The protocol:
GPR119 agonist activity was also determined with a cell-based assay utilizing an HTRF (Homogeneous Time-Resolved Fluorescence) cAMP detection kit (cAMP dynamic 2 Assay Kit; Cis Bio cat #62AM4PEC) that measures cAMP levels in the cell. The method is a competitive immunoassay between native cAMP produced by the cells and the cAMP labeled with the dye d2. The tracer binding is visualized by a Mab anti-cAMP labeled with Cryptate. The specific signal (i.e. energy transfer) is inversely proportional to the concentration of cAMP in either standard or sample.
Specifically, hGPR119 HEK-CRE beta-lactamase cells (Invitrogen 2.5×10^7/mL; the same cell line used in the beta-lactamase assay described above) are removed from cryopreservation and diluted in growth medium (Dulbecco's modified Eagle medium high glucose (DMEM; Gibco Cat # 11995-065), 1% charcoal dextran treated fetal bovine serum (CD serum; HyClone Cat # SH30068.03), 1×MEM Nonessential amino acids (Gibco Cat # 15630-080) and 25 mM HEPES pH 7.0 (Gibco Cat # 15630-080)). The cell concentration was adjusted to 1.5×10^5 cells/mL and 30 mLs of this suspension was added to a T-175 flask and incubated at 37 degrees Celsius in a humidified environment in 5% carbon dioxide. After 16 hours (overnight), the cells were removed from the T-175 flask (by rapping the side of the flask), centrifuged at 800×g and then re-suspended in assay medium (1×HBSS+CaCl2+MgCl2 (Gibco Cat # 14025-092) and 25 mM HEPES pH 7.0 (Gibco Cat # 15630-080)). The cell concentration was adjusted to 6.25×10^5 cells/mL with assay medium and 8 μl of this cell suspension (5000 cells) was added to each well of a white Greiner 384-well, low-volume assay plate (VWR cat #82051-458).
Varying concentrations of each compound to be tested were diluted in assay buffer containing 3-isobutyl-1-methylxanthin (IBMX; Sigma cat #15879) and added to the assay plate wells in a volume of 2 microL (final IBMX concentration was 400 microM and final DMSO concentration was 0.58%). Following 30 minutes incubation at room temperature, 5 microL of labeled d2 cAMP and 5 microL of anti-cAMP antibody (both diluted 1:20 in cell lysis buffer; as described in the manufacturers assay protocol) were added to each well of the assay plate. The plates were then incubated at room temperature and after 60 minutes, changes in the HTRF signal were read with an Envision 2104 multilabel plate reader using excitation of 330 nm and emissions of 615 and 665 nm. Raw data were converted to nM cAMP by interpolation from a cAMP standard curve (as described in the manufacturer's assay protocol) and EC50 determinations were made from an agonist-response curves analyzed with a curve fitting program using a 4-parameter logistic dose response equation.
In general terms: In TR-FRET formats the signal depends on donor and acceptor labels being close together.

For assay [2], the target named is T1, human GPR119. Briefly: β-Arrestin PathHunter assay (U2OS hGPR119 β-arrestin cells). In kind it is cell-based. Particulars: for Emax: U2OS, read-out: Intrinsic Activity (Human B-arrestin). The protocol: GPR119 agonist activity was also determined with a cell-based assay utilizing DiscoverX PathHunter β-arrestin cell assay technology and their U2OS hGPR119 β-arrestin cell line (DiscoverX Cat # 93-0356C3). In this assay, agonist activation is determined by measuring agonist-induced interaction of β-arrestin with activated GPR119. A small, 42 amino acid enzyme fragment, called ProLink was appended to the C-terminus of GPR119. Arrestin was fused to the larger enzyme fragment, termed EA (Enzyme Acceptor). Activation of GPR119 stimulates binding of arrestin and forces the complementation of the two enzyme fragments, resulting in formation of a functional β-galactosidase enzyme capable of hydrolyzing substrate and generating a chemiluminescent signal.
Specifically, U2OS hGPR119 β-arrestin cells (DiscoverX 1×10^7/mL) are removed from cryopreservation and diluted in growth medium (Minimum essential medium (MEM; Gibco Cat # 11095-080), 10% heat inactivated fetal bovine serum (HIFBS; Sigma Cat # F4135-100), […] sodium pyruvate (Sigma Cat # S8636), 500 microg/mL G418 (Sigma Cat # G8168) and 250 microg/mL Hygromycin B (Invitrogen Cat # 10687-010). The cell concentration was adjusted to 1.66×10^5 cells/mL and 30 mLs of this suspension was added to a T-175 flask and incubated at 37 degrees Celsius in a humidified environment in 5% carbon dioxide. After 24 hours, the cells were removed from the T-175 flask with enzyme-free cell dissociation buffer (Gibco cat #13151-014), centrifuged at 800×g and then re-suspended in plating medium (Opti-MEM I (Invitrogen/BRL Cat # 31985-070) and 2% charcoal dextran treated fetal bovine serum (CD serum; HyClone Cat # SH30068.03).
The cell concentration was adjusted to 2.5×10^5 cells/mL with plating medium and 20 microliters of this cell suspension (5000 cells) was added to each well of a white Greiner 384-well low volume assay plate (VWR cat #82051-458) and the plates were incubated at 37 degrees Celsius in a humidified environment in 5% carbon dioxide.
After 16 hours (overnight) the assay plates were removed from the incubator and varying concentrations of each compound to be tested (diluted in assay buffer (1×HBSS+CaCl2+MgCl2 (Gibco Cat # 14025-092), 20 mM HEPES pH 7.0 (Gibco Cat # 15630-080) and 0.1% BSA (Sigma Cat # A9576)) were added to the assay plate wells in a volume of 5 microliters (final DMSO concentration was 0.5%). After a 90 minute incubation at 37 degrees Celsius in a humidified environment in 5% carbon dioxide, 12 microliters of Galacton Star β-galactosidase substrate (PathHunter Detection Kit (DiscoveRx Cat # 93-0001); prepared as described in the manufacturers assay protocol) was added to each well of the assay plate. The plates were incubated at room temperature and after 60 minutes, changes in the luminescence were read with an Envision 2104 multilabel plate reader at 0.1 seconds per well. EC50 determinations were made from an agonist-response curves analyzed with a curve fitting program using a 4-parameter logistic dose response equation.

[3] abbreviates: percent of maximal activity relative to standard GPR119 agonist at 10 micromolar.

Structures are written as SMILES. Where “and” joins values, the source holds several entries; their conditions need not be identical. Equal values may be shown once.

With `Cc1c(O[C@@H]2CCN(C(=O)OC3(C)CC3)C[C@@H]2F)ncnc1N1CCc2ncccc21` [Example 18, 1-Methylcyclopropyl (3S,4R)-4-{[6-(2,3-dihydro-1H-pyrrolo[3,2-b]pyridin-1-yl)-5-methylpyrimidin-4-yl]oxy}-3-fluoropiperidine-1-carboxylate], the concentration for a half-maximal effect (EC50) at human GPR119 [1] (HTRF cAMP, 30 min, 400 microM IBMX, each line a separate determination) was 18.8 nM and 18.4 nM and 15.9 nM and 12.7 nM and 14.6 nM. Besides, the “Intrinsic Activity (Human cAMP)” value on human GPR119 [1] (setting [3]) is 71.2% and 49.2% and 54.5% and 61.7% and 57.7%. Further, the concentration giving a half-maximal response (EC50) on human GPR119 [2] (U2OS hGPR119 β-arrestin cells, 90 min, each line a separate determination, read-out: Human B-arrestin Functional EC50) was 2.57 nM and 19 nM and 4.94 nM and 20.6 nM. Moreover, at human GPR119 [2] (setting [3]), the Emax came to 75.8%; the “Intrinsic Activity (Human B-arrestin)” value was 73.7% and 81% and 78.9%.
As to `Cc1c(O[C@@H]2[C@@H]3COC[C@H]2CN(C(=O)OC2(C)CC2)C3)ncnc1N1CCc2ncccc21` [Example 28, 1-Methylcyclopropyl (9-syn)-9-{[6-(2,3-dihydro-1H-pyrrolo[3,2-b]pyridin-1-yl)-5-methylpyrimidin-4-yl]oxy}-3-oxa-7-azabicyclo[3.3.1]nonane-7-carboxylate], the “Intrinsic Activity (Human cAMP)” value at human GPR119 [1] (setting [3]) is 37% and 36%. Further, the Emax at human GPR119 [1] (percent of maximal activity relative to standard GPR119 agonist at 10 micromolar, read-out: Intrinsic Activity (Human cAMP)) worked out at 41.9%; at human GPR119 [2] (setting [3]), 32.1%.
